# Test results: paper PMC6934184, “Selective DNA-PKcs inhibition extends the therapeutic index of localized radiotherapy and chemotherapy” (The Journal of Clinical Investigation, 2019)
# Biological target: T1, LRRK2 I2020T (Homo sapiens, UniProt Q5S007, I2020T)
# T1 construct: purchased Thermo Fisher Scientific (Life Technologies) SelectScreen
# Assay: SelectScreen Adapta
# Type: biochemical
# Method in brief: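 SelectScreen broad panel; activity (Z'LYTE, Adapta) plus binding formats. ATP: Km app for CSF1R Z'LYTE; 10 for CAMK1 Adapta. Readout = % per kinase.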
# T1 sequence (Q5S007 whole entry I2020T): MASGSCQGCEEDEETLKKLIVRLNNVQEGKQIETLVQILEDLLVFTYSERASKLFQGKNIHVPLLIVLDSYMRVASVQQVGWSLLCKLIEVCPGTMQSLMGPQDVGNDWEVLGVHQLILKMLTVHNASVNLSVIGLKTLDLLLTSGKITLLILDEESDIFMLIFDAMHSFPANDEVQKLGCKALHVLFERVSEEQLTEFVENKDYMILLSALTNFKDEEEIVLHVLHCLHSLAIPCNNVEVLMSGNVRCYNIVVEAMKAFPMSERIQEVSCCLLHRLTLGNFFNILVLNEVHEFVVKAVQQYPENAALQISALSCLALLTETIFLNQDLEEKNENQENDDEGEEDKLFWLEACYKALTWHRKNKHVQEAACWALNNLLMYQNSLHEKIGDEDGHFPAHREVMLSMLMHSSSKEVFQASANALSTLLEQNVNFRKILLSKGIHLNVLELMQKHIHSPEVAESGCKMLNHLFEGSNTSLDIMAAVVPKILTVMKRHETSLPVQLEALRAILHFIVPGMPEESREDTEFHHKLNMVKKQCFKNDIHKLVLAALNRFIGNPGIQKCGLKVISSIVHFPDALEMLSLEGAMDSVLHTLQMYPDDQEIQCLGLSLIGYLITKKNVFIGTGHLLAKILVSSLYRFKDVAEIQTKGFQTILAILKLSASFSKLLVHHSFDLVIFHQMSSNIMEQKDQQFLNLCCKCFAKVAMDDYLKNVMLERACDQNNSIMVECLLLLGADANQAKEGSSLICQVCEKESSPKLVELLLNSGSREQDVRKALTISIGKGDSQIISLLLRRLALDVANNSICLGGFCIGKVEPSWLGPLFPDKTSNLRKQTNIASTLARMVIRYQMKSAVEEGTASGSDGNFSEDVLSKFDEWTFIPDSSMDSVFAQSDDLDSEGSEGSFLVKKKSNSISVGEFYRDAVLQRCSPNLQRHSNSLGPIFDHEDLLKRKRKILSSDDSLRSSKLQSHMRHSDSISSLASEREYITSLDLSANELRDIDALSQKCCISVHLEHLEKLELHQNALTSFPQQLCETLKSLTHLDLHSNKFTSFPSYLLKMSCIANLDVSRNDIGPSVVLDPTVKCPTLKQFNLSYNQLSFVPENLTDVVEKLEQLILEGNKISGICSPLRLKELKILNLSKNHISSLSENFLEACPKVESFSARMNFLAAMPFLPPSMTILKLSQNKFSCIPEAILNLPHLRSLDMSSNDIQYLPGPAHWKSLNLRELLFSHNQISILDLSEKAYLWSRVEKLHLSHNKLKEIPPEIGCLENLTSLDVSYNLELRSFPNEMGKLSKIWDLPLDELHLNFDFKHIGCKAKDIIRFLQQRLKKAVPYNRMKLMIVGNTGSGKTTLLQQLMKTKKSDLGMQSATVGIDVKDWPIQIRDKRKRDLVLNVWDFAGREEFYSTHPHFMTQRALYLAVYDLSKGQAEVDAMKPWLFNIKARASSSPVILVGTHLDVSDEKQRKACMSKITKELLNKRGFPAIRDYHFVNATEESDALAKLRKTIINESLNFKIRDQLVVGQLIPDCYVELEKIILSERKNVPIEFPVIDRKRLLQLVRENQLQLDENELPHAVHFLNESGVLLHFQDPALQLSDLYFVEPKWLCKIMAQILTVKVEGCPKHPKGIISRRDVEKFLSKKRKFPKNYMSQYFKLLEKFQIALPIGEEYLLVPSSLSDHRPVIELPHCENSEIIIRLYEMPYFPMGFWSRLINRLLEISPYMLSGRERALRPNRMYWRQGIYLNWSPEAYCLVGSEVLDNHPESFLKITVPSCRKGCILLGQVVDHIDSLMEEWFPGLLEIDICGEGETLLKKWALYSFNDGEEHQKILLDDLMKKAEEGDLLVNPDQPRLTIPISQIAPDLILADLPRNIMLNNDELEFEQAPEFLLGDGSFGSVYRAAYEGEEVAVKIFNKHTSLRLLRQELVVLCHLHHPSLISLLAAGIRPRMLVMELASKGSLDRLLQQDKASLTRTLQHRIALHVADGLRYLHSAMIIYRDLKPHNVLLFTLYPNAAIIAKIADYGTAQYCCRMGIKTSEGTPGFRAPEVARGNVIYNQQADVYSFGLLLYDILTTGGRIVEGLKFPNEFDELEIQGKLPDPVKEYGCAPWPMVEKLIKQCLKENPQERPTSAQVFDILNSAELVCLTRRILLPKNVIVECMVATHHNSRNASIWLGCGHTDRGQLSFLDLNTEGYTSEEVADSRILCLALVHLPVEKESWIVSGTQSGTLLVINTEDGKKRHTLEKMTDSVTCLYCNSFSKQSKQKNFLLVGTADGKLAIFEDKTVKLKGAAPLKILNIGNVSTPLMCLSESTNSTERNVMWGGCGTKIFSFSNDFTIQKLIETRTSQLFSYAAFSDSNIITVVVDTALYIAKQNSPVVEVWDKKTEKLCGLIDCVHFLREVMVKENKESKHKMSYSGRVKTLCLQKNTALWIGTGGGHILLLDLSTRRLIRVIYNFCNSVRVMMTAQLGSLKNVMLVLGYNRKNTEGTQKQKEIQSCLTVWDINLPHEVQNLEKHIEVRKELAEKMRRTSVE
smiles,measurement,value
CN(C(=O)CN1CCOCC1)c1ccc2sc3c(-c4cccc5c(=O)cc(N6CC7CCC(C6)O7)oc45)cccc3c2c1 [NU5455],inhibition at 1 µM,-4%
